Source: paper PMC9365994, “Small molecules to regulate the GH/IGF1 axis by inhibiting the growth hormone receptor synthesis” (Frontiers in Endocrinology, 2022)

What was measured:
[1] = test system: Colo-205 human colon cancer line; test: Cell proliferation assay (CyQuant), Colo-205; type: cell-based
Text: (§1) Based on these 2 compounds, Specs selected a new set of 109 structural analogues ( Supplementary Data 3 ). Twenty-one compounds tested positive in the primary screen protocol. […] ( Figures S12, S13 ). The 14 active drugs are depicted in Figure 4 . In the final test, the 5 best compounds (BM001-BM005) were screened for their […] effect on cancer cells. We used the triple-negative human breast cancer line, MDA-MM-231 (MM231) and the human colon cancer line Colo-205, and quantified DNA in vital cells ( Figure 5B ). Dose-response curves were made after 24, 48 & 72 h. The 5 drugs inhibited both cell lines relatively equal to the dose-response curves monitoring pGHR tails, pJak2, and pSTAT5 ( Figure S13 and Figure S14 ) with IC50 values varying from 30-200 nM ( Figure 5 ). […]
(§2) fos-GHRct phosphorylation (Fig. S12), a remarkable hit rate of […]. Next, we determined the dose-response effect (IC50) of these 21 new compounds on pY-levels of fos-GHRct. The compounds were divided in four categories: no dose-response effect (6), effect less than […]
(§3) plateaued at 200 units of relative fluorescence intensity. […]
(§4) protocol. […]
(§5) Next, we assessed the effect of the best 5 lead compounds (BM001-BM005) for the inhibition of cell proliferation/induction or cell death. […] With a standard green filter set the fluorescence from the nuclei is quantified in a multi-well plate spectrophotometer. […]

[2] = test system: MDA-MM-231 (MM231) triple-negative human breast cancer line; test: Cell proliferation assay (CyQuant), MDA-MM-231; type: cell-based
Text: as §1, §2, §3, §4, §5

[3] = Liver weight, body weight and side effects in xenografted mice; type: in vivo
Protocol: (§6) BM001, BM002, and BM003 were used in mice xenografted with MM231 breast cancer cells that are GH-responsive both for growth and drug resistance ([42]–[45]). The cells were orthotopically grafted into the inguinal mammary gland, and drug treatments started when tumors reached a volume of >50 mm^3. We used a treatment regimen of 3 injections per week (1 and 5 mg/kg) during 3 weeks (9 mice/group) ( Figure 6 ). Animals were killed when tumor volume exceeded 150 mm^3 or mice presented lung metastasis upon bioluminescence imaging measurements. […] Drug withdrawal effects were not studied until now. […] We observed no adverse side effects neither on appetite and behavior ([46]). […] We next assessed if the identified drugs indeed target the GH/IGF1 pathway and consequently, if they result in a decrease in liver weight and IGF1 levels, as observed in GHR knockout mice and Laron patients ([47]).

IGF1 = test: Serum IGF1 levels in xenografted mice; type: in vivo
Protocol: as §6

fos-GHRct = molecular target: T1, fos-GHRct (Oryctolagus cuniculus, UniProt P19941); test: In vitro translation of fos-GHRct in HeLa cell cell-free system; type: biochemical; conditions: Figure 7B
T1 sequence (P19941 288-638): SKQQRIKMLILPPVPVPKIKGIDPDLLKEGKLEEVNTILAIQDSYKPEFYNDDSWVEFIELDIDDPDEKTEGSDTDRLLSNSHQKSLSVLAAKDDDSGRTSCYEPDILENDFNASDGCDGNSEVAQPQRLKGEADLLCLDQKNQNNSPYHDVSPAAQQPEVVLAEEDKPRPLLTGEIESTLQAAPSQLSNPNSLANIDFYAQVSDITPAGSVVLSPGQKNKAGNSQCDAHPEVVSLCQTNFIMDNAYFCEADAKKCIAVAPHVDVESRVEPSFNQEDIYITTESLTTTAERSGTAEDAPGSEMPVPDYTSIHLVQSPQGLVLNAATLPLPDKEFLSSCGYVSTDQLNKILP
Text: pcDNA3 vector DNA expressing Fos-zippered GHR cytosolic tails as described in ([32]) was used in a cell-free translation system, based on HeLa cell extract (Promega). Empty vector (pcDNA) was used as control. The blots were detected with an anti-GHR antibody raised in rabbits against GHR cytosolic tails.
To decide between these possibilities, we performed in vitro translation experiments.
This experiment represents the results of 6 independent repeats. […] In the right panel the 4 proline residues in box-1 were replaced by alanine residues. Empty vector (pcDNA) was used as control. The blots were detected with anti-GHR(B).

[4] = Glucose and insulin levels in a dog experiment; type: in vivo; conditions: data not shown

SMILES | effect on cell proliferation (in words) [1] | effect on cell proliferation (in words) [2] | Liver weight ([3]; 1 mg/kg) [mg] | Liver weight ([3]; 5 mg/kg) [mg] | reduction of liver weight ([3]; 3 injections per week, 3 weeks) [%] | total body weights ([3]; 3 weeks treatment) | liver weight (in words) ([3]; Figure 6E) | reduction of serum IGF1 levels (IGF1; 3 injections per week, 3 weeks) [%] | plasma IGF1 levels (in words) (IGF1; Figure 6D) | reduction of IGF1 (fold) (IGF1; measured at the end of the experiment) | concentration inhibiting the synthesis of fos-GHRct (fos-GHRct) [µM] | glucose levels [4] | insulin levels [4]
N#CC[C@H](C1CCCC1)n1cc(-c2ncnc3[nH]ccc23)cn1 [Ruxolitinib, reference compound] | no effect | no effect |  |  |  |  |  |  |  |  |  |  | 
Cc1nc(N)nc(N)c1/C=C/C1(c2ccc(C(F)(F)F)cc2)CC1 [BM001] |  |  | 1041 | 1038 | 16 | remained the same | dose-dependent reduction | 73 | dose-dependent reduction | four-fold | 0.1 to 1 | did neither affect | did neither affect
